{"source": "paper PMC8371902", "about": "“Phase 1 study of M2698, a p70S6K/AKT dual inhibitor, in patients with advanced cancer” (Journal of Hematology & Oncology, 2021)", "test_system": "patients with advanced metastatic cancer", "text": "In this phase 1 study, dose escalation was followed by expansion cohorts of once-daily, oral M2698 in continuous 21-day cycles. Primary objectives were to determine the maximum tolerated dose (MTD), dose-limiting toxicities (DLTs), and recommended phase 2 dose (RP2D). Secondary objectives were to assess safety and tolerability, pharmacokinetics (PK, including food effect) and antitumor activity. Pharmacodynamic biomarker assessments were exploratory. Treatment was discontinued if there was disease progression, toxicity or consent withdrawal.\nIn Part 1, M2698 monotherapy was investigated in a dose escalation with a food effect cohort. In Part 2, M2698 was investigated as monotherapy (expansion cohort) to further characterize safety, tolerability and pharmacokinetics, and assess antitumor activity in PAM + patients without confounding markers (exploratory).\nDose escalation analysis included all patients who experienced a DLT and those who received ≥ 80% of planned M2698 doses in cycle 1 without experiencing a DLT. Safety analysis included all patients who received ≥ 1 dose of M2698. PK analysis included all patients who received ≥ 1 dose of M2698 and had measurable plasma concentrations. Dose proportionality was tested using the power model (linear regression approach on the log -transformed scale).", "note": "“Also recorded” adds a separate entry of the source."}
{"smiles": "NC(=O)c1cccc2c(N[C@H](CN3CCC3)c3ccc(Cl)c(C(F)(F)F)c3)ncnc12", "note": "[M2698]", "values": [{"measurement": "M2698-related TEAE: Vomiting", "setting": "Overall N=62", "result": "2 (3.2) n (%)"}, {"measurement": "M2698-related TEAE: White blood cell count decreased", "setting": "Overall N=62", "result": "1 (1.6) n (%)"}, {"measurement": "Maximum tolerated dose (MTD) of M2698", "setting": "daily", "result": "no formal MTD was determined; also recorded: no MTD was reached"}, {"measurement": "Number of DLTs observed", "setting": "dose escalation", "result": "two"}, {"measurement": "Grade >3 TEAE: GGT increased", "setting": "in vivo", "result": 4.8, "unit": "%"}, {"measurement": "Grade >3 TEAE: abdominal pain", "setting": "in vivo", "result": 3.2, "unit": "%"}, {"measurement": "Grade >3 TEAE: acute kidney injury", "setting": "in vivo", "result": 4.8, "unit": "%"}, {"measurement": "Grade >3 TEAE: acute respiratory failure", "setting": "in vivo", "result": 3.2, "unit": "%"}, {"measurement": "Grade >3 TEAE: anemia", "setting": "in vivo", "result": 9.7, "unit": "%"}, {"measurement": "Grade >3 TEAE: blood AP increased", "setting": "in vivo", "result": 3.2, "unit": "%"}, {"measurement": "Grade >3 TEAE: blood creatine phosphokinase increased", "setting": "in vivo", "result": 3.2, "unit": "%"}, {"measurement": "Grade >3 TEAE: cardiac arrest", "setting": "in vivo", "result": 3.2, "unit": "%"}, {"measurement": "Grade >3 TEAE: constipation", "setting": "in vivo", "result": 3.2, "unit": "%"}, {"measurement": "Grade >3 TEAE: disease progression", "setting": "in vivo", "result": 3.2, "unit": "%"}, {"measurement": "Grade >3 TEAE: hypertension", "setting": "in vivo", "result": 3.2, "unit": "%"}, {"measurement": "Grade >3 TEAE: hyponatremia", "setting": "in vivo", "result": 6.5, "unit": "%"}, {"measurement": "Grade >3 TEAE: nausea", "setting": "in vivo", "result": 3.2, "unit": "%"}, {"measurement": "Grade >3 TEAE: pleural effusion", "setting": "in vivo", "result": 3.2, "unit": "%"}, {"measurement": "Grade >3 TEAE: pneumonia", "setting": "in vivo", "result": 4.8, "unit": "%"}, {"measurement": "Grade >3 TEAE: septic shock", "setting": "in vivo", "result": 3.2, "unit": "%"}, {"measurement": "Grade >3 TEAE: small intestinal obstruction", "setting": "in vivo", "result": 3.2, "unit": "%"}, {"measurement": "Grade >3 TEAE: urinary tract infection", "setting": "in vivo", "result": 4.8, "unit": "%"}, {"measurement": "Grade >3 TEAE: vomiting", "setting": "in vivo", "result": 4.8, "unit": "%"}, {"measurement": "M2698-related TEAE abnormal dreams", "setting": "in vivo", "result": 9.7, "unit": "%"}, {"measurement": "M2698-related TEAE diarrhea", "setting": "in vivo", "result": 11.3, "unit": "%"}, {"measurement": "M2698-related TEAE fatigue", "setting": "in vivo", "result": 6.5, "unit": "%"}, {"measurement": "M2698-related TEAE nausea", "setting": "in vivo", "result": 19.4, "unit": "%"}, {"measurement": "M2698-related TEAE tremor", "setting": "in vivo", "result": 6.5, "unit": "%"}, {"measurement": "M2698-related TEAE: Abnormal dreams", "setting": "in vivo", "result": "6 (9.7) number of patients (percent)"}, {"measurement": "M2698-related TEAE: Diarrhea", "setting": "in vivo", "result": "7 (11.3) number of patients (percent)"}, {"measurement": "M2698-related TEAE: Fatigue", "setting": "in vivo", "result": "4 (6.5) number of patients (percent)"}, {"measurement": "M2698-related TEAE: Nausea", "setting": "in vivo", "result": "12 (19.4) number of patients (percent)"}, {"measurement": "M2698-related TEAE: Tremor", "setting": "in vivo", "result": "4 (6.5) number of patients (percent)"}, {"measurement": "M2698-related TEAEs: patients with ≥1 event", "setting": "in vivo", "result": "34 (54.8) number of patients (percent)"}, {"measurement": "Patients with M2698-related TEAEs", "setting": "in vivo", "result": 54.8, "unit": "%"}, {"measurement": "Patients with M2698-related TEAEs grade ≥ 3", "setting": "in vivo", "result": 12.9, "unit": "%"}, {"measurement": "Serious TEAE related to M2698", "setting": "in vivo", "result": "5 (8.1) number of patients (percent)"}, {"measurement": "Serious TEAEs", "setting": "in vivo", "result": "26 (41.9) number of patients (percent)"}, {"measurement": "Serious TEAEs attributed to M2698", "setting": "in vivo", "result": "8.1 % of patients"}, {"measurement": "TEAE leading to permanent discontinuation of any trial treatment", "setting": "in vivo", "result": "6 (9.7%) number of patients (percent)"}, {"measurement": "TEAE leading to temporary discontinuation of M2698", "setting": "in vivo", "result": "29 (46.8%) number of patients (percent)"}, {"measurement": "TEAE related to M2698", "setting": "in vivo", "result": "34 (54.8%) number of patients (percent)"}, {"measurement": "TEAE related to M2698, grade ≥ 3", "setting": "in vivo", "result": "8 (12.9%) number of patients (percent)"}, {"measurement": "TEAE: ALT increased", "setting": "in vivo", "result": "4 (6.5) n (%)"}, {"measurement": "TEAE: AST increased", "setting": "in vivo", "result": "2 (3.2) n (%)"}, {"measurement": "TEAE: Abdominal pain", "setting": "in vivo", "result": "5 (8.1) n (%)"}, {"measurement": "TEAE: Abnormal dreams", "setting": "in vivo", "result": "6 (9.7) n (%)"}, {"measurement": "TEAE: Anemia", "setting": "in vivo", "result": "13 (21.0) n (%)"}, {"measurement": "TEAE: Anxiety", "setting": "in vivo", "result": "6 (9.7) n (%)"}, {"measurement": "TEAE: Arthralgia", "setting": "in vivo", "result": "1 (1.6) n (%)"}, {"measurement": "TEAE: Asthenia", "setting": "in vivo", "result": "2 (3.2) n (%)"}, {"measurement": "TEAE: Back pain", "setting": "in vivo", "result": "2 (3.2) n (%)"}, {"measurement": "TEAE: Blood AP increased", "setting": "in vivo", "result": "4 (6.5) n (%)"}, {"measurement": "TEAE: Blood bilirubin increased", "setting": "in vivo", "result": "2 (3.2) n (%)"}, {"measurement": "TEAE: Blood creatinine increased", "setting": "in vivo", "result": "7 (11.3) n (%)"}, {"measurement": "TEAE: Chills", "setting": "in vivo", "result": "2 (3.2) n (%)"}, {"measurement": "TEAE: Constipation", "setting": "in vivo", "result": "14 (22.6) n (%)"}, {"measurement": "TEAE: Cough", "setting": "in vivo", "result": "11 (17.7) n (%)"}, {"measurement": "TEAE: Decreased appetite", "setting": "in vivo", "result": "9 (14.5) n (%)"}, {"measurement": "TEAE: Dehydration", "setting": "in vivo", "result": "7 (11.3) n (%)"}, {"measurement": "TEAE: Depression", "setting": "in vivo", "result": "3 (4.8) n (%)"}, {"measurement": "TEAE: Diarrhea", "setting": "in vivo", "result": "17 (27.4) n (%)"}, {"measurement": "TEAE: Disease progression", "setting": "in vivo", "result": "2 (3.2) n (%)"}, {"measurement": "TEAE: Dizziness", "setting": "in vivo", "result": "9 (14.5) n (%)"}, {"measurement": "TEAE: Dry mouth", "setting": "in vivo", "result": "3 (4.8) n (%)"}, {"measurement": "TEAE: Dry skin", "setting": "in vivo", "result": "0 (0) n (%)"}, {"measurement": "TEAE: Dyspnea", "setting": "in vivo", "result": "4 (6.5) n (%)"}, {"measurement": "TEAE: Edema peripheral", "setting": "in vivo", "result": "1 (1.6) n (%)"}, {"measurement": "TEAE: Fatigue", "setting": "in vivo", "result": "21 (33.9) n (%)"}, {"measurement": "TEAE: GGT increased", "setting": "in vivo", "result": "7 (11.3) n (%)"}, {"measurement": "TEAE: Gait disturbance", "setting": "in vivo", "result": "2 (3.2) n (%)"}, {"measurement": "TEAE: Headache", "setting": "in vivo", "result": "3 (4.8) n (%)"}, {"measurement": "TEAE: Hyperglycemia", "setting": "in vivo", "result": "1 (1.6) n (%)"}, {"measurement": "TEAE: Hypertension", "setting": "in vivo", "result": "4 (6.5) n (%)"}, {"measurement": "TEAE: Hypoalbuminemia", "setting": "in vivo", "result": "5 (8.1) n (%)"}, {"measurement": "TEAE: Hypocalcemia", "setting": "in vivo", "result": "4 (6.5) n (%)"}, {"measurement": "TEAE: Hypokalemia", "setting": "in vivo", "result": "4 (6.5) n (%)"}, {"measurement": "TEAE: Hypomagnesemia", "setting": "in vivo", "result": "2 (3.2) n (%)"}, {"measurement": "TEAE: Hyponatremia", "setting": "in vivo", "result": "5 (8.1) n (%)"}, {"measurement": "TEAE: Insomnia", "setting": "in vivo", "result": "2 (3.2) n (%)"}, {"measurement": "TEAE: Muscle spasms", "setting": "in vivo", "result": "0 (0) n (%)"}, {"measurement": "TEAE: Muscular weakness", "setting": "in vivo", "result": "1 (1.6) n (%)"}, {"measurement": "TEAE: Nasopharyngitis", "setting": "in vivo", "result": "1 (1.6) n (%)"}, {"measurement": "TEAE: Nausea", "setting": "in vivo", "result": "23 (37.1) n (%)"}, {"measurement": "TEAE: Neutropenia", "setting": "in vivo", "result": "1 (1.6) n (%)"}, {"measurement": "TEAE: Pain in extremity", "setting": "in vivo", "result": "3 (4.8) n (%)"}, {"measurement": "TEAE: Pyrexia", "setting": "in vivo", "result": "11 (17.7) n (%)"}, {"measurement": "TEAE: Rash", "setting": "in vivo", "result": "1 (1.6) n (%)"}, {"measurement": "TEAE: Tremor", "setting": "in vivo", "result": "5 (8.1) n (%)"}, {"measurement": "TEAE: Urinary tract infection", "setting": "in vivo", "result": "5 (8.1) n (%)"}, {"measurement": "TEAE: Vision blurred", "setting": "in vivo", "result": "3 (4.8) n (%)"}, {"measurement": "TEAE: Vomiting", "setting": "in vivo", "result": "12 (19.4) n (%)"}, {"measurement": "TEAE: Weight decrease", "setting": "in vivo", "result": "4 (6.5) n (%)"}, {"measurement": "TEAEs", "setting": "in vivo", "result": "61 (98.4%) number of patients (percent)"}, {"measurement": "TEAEs, grade ≥ 3", "setting": "in vivo", "result": "36 (58.1%) number of patients (percent)"}, {"measurement": "TEAE leading to death", "setting": "no deaths considered related to M2698, trastuzumab or tamoxifen", "result": "6 (9.7) number of patients (percent)"}, {"measurement": "Recommended phase 2 dose (RP2D) of M2698", "setting": "once daily (QD)", "result": 240, "unit": "mg"}, {"measurement": "Psychiatric event attributed to M2698", "setting": "one patient, 320 mg, cycle 2", "result": "grade 3 psychosis"}, {"measurement": "Grade 2–3 gastrointestinal adverse events requiring dose reduction", "setting": "patients with prolonged exposure to M2698 ≥ 320 mg", "result": 19.4, "unit": "%"}]}
